In patent US20040235795A1, “Utilization of phosphatidylserine in the treatment of attention deficit syndrome (adhs)” (priority 2001, published 2004):
Entries after “also recorded” stand apart in the source; their conditions may differ.

What was measured:
[1] = tested on: attention deficit syndrome (ADHS) probands; assay: Open study of phosphatidylserine supplementation in ADHS probands (examples 1 to 4); assay type: in vivo, human
Description: Probands in an open study (examples 1 to 4) were selected with the aid of the Wender Utah Rating Scale (WURS) on the basis of their performance at school as well as clinical and physiological tests. They were assessed after 4, 6 and 8 weeks with the short-term supplementation and after 2, 4 and 6 months with the longer supplementation. The probands were examined for measurable differences with regard to concentration, attention, impulsivity, aggression potential and hyperactivity. Questionnaires were used to involve probands, parents and teachers in the evaluation.

ADHS patients = conditions: cited from earlier work
[2] = Example 3: 100 mg per day, 6 months, child, after the third month
[3] = high dosages 200 to 500 mg daily over 4 months

habituation effects ([1]; ADHS patients / probands with ADHS): no habituation effects occurred
Substance: phosphatidylserine
general well-being (reported by proband) ([1]; Example 2: 200 mg three times daily, 7 weeks, child): improvement | hyperactivity ([1]; Example 2: 200 mg three times daily, 7 weeks, child, end of supplementation): marked decline | attentiveness, concentration and memory performance as well as achievement at school ([1]; Example 3: 100 mg per day, 6 months, child): improved considerably | general well-being [1, 2]: improvement | mood [1, 2]: uplift | tolerance ([1]; even in high doses and over a longer supplementation period): no limitation whatsoever on its wellknown good tolerance; also recorded: well tolerated | improvement of the ADHS symptoms (ADHS patients; 100 mg per day over a period of 2 months): did not result in a clear improvement | side effects with drugs administered at the same time (ADHS patients; 100 to 500 mg daily): no side effects occurred | probands with positive effect (ADHS patients; 200 to 300 mg daily (severe symptoms up to 500 mg daily) over 4 months, probands aged 3 to 19 years): 25 of 27 | improvement in single proband one (ADHS patients; [3]): not possible to make a clear statement about an improvement | improvement in single proband two (ADHS patients; [3]): only a slight improvement
